Holding throughout (format): cell-based, human
Test [1] has as its system NHEK. Kind of test: In vitro keratinocyte migration assay. Conditions: mitomycin-treated wounded NHEK; OSM 10 ng/ml, IL-31 100 ng/ml. The method, then: Keratinocytes were cultured in wells pre-coated with type I collagen (200 μg/ml, Institut Jacques Boy, Reims, France) until they reached 80% confluency. Cells were starved for 48 h in Keratinocyte SFM and then treated with 10 μg/ml of mitomycin C (Sigma) for 2 h to prevent cell proliferation. A cell-free area was created by scraping the keratinocyte monolayer with a plastic pipette tip. Keratinocytes migration to the cell-free area was evaluated after 48 h of culture in the absence or presence of EGF or OSM. Using an inverted phase contrast microscope. The number of migrating keratinocytes was counted in 4 non-overlapping fields. Values represent the mean±SEM of cells per mm^2 beyond the frontiers of the in vitro injury. Student's t test was used for statistical analysis.

The subject of test [2] is NHEK. The test is described as follows: Gene expression profiling of NHEK using cDNA macroarrays. To be noted: 10 ng/ml OSM 24 h. The method, then: Total RNA was isolated as described for PCR studies. DNase treatment, polyA^+ RNA enrichment, ^33P-labelled cDNA probe synthesis, purification and hybridization to custom Atlas array membranes (Bernard, Pedretti et al. 2002) were performed according to Clontech's recommendations (Clontech, Palo Alto, USA). Membranes were exposed for 5 days to a Molecular Dynamics Storm storage screen and scanned using a phosphorimager scanner (Molecular Dynamics Storm analyser, Amersham Biosciences, Uppsala, Sweden). After local background substraction, average signal intensity from duplicate spots was normalized for differences in probe labelling using the values obtained for housekeeping genes (Bernard et al., 2002). For each gene, the OSM-induced modulation was expressed as the relative expression value for stimulated versus control sample. Arbitrarily, only modulation above 2 was considered significant for confirmation using RT-real time PCR assay.

The test system of test [3] is NHEK. The test is described as follows: S100 proteins expression in NHEK (Western blot). To be noted: 10 ng/ml OSM, day 2 and day 4. The protocol:
[…] Cell lysis was performed with 50 mM Tris HCl pH 7.4, 150 mM NaCl, 1 mM EDTA, 1% Triton, 1% sodium deoxycholate, 0.1% SDS, 1 mM PMSF, 1 mM sodium orthovanadate, 1% protease inhibitors. S100A7, S100A8 and S100A9 were detected by immunochemistry as described above. Ponceau red staining was used to control loading homogeneity.

The test system of test [4] is NHEK. Kind of test: RT-QPCR of antimicrobial peptide and chemokine genes in NHEK. To be noted: 10 ng/ml, 24 h. The method, then:
NHEK were obtained as previously described, from surgical samples of healthy breast skin (Boniface et al, 2005). NHEK were cultured to 80% of confluence and then starved for 24 h in Keratinocyte SFM without addition of growth factors before stimulation. Cells were stimulated with or without 10 ng/ml of recombinant IL-17A, OSM, TNFα, IL-22 and IL-1α alone or in combination (R&D systems Europe, Lille, France) during 24 h for mRNA quantification or 48 h to 96 h for protein quantification.
NHEK and skin total RNA were isolated and reverse-transcribed as previously described (Boniface et al, 2005). Quantitative real time PCR was carried using the LightCycler-FastStart DNA Master SYBR® Green I kit on LightCycler 480 (Roche Diagnostics, Meylan, France). The reaction components were 1×DNA Master Mix, and 0.5 μM of HPLC purified sense and anti-sense oligonucleotides purchased from Eurogentec (Eurogentec France, Angers, France), designed using Primer3 software. Samples were normalized to three independent control housekeeping genes (G3PDH, RPL13A or ACTB for human samples and G3PDH, HMBS or B2m for mouse samples) and reported according to the ΔΔCT method as RNA fold increase: 2^ΔΔCT=2^ΔCT sample−ΔCT eference. For comparison of normal skin and psoriatic skin the REST 2008 software was used (Pfaffl et al., 2002).

The subject of a further test is RHE. The test is described as follows: RHE histology and immunohistochemistry (Example 14). Conditions: single cytokines, 72 h. The protocol: Normal human epidermal keratinocytes (NHEK) were obtained as previously described, from surgical samples of healthy breast skin (Boniface et al, 2005). NHEK were cultured to 80% of confluence allowing the expression of a large panel of keratinocyte differentiation markers, and then starved for 24 h in Keratinocyte SFM containing 0.03 mM Ca^2+ (Invitrogen Life Technologies, Cergy Pontoise, France) before stimulation. Confluent differentiated cells were stimulated with or without recombinant IL-17A, OSM, TNFα, IL-22 and IL-1α alone at maximum effective concentrations (reported previously around 10 ng/ml (Boniface et al, 2005 and Boniface et al, 2007)) or in combination (R&D systems Europe, Lille, France) during 2 h to 72 h for mRNA quantification. RHE were generated on polycarbonate culture inserts, from surgical samples of paediatric foreskins as previously described (Guenou et al., 2009). RHE were stimulated with or without recombinant IL-17A, OSM, TNFα, IL-22 and IL-1α alone or in combination, with or without a Janus protein Tyrosine Kinases (JAKs) inhibitor 10 μM (Calbiochem, 420099), during 24 h for mRNA quantification or during 72 h for immunohistological analysis.
RHE were washed and fixed with formaldehyde solution. Fixed tissues were dehydrated with increasing ethanol concentrations, embedded in paraffin and sections were carried out using a microtome (4 μm thickness). The sections were deparaffinised, washed and incubated with hydrogen peroxide. The sections were incubated with anti-CK10 (SantaCruz, SC-23877), anti-LOR (Eurogentec, PRB-145P), anti-FLG (SantaCruz, SC-66192), anti-IVL (Biomedical Technologies, BT-601), anti-S100A7 (Clinisciences, IMG-409A) and then detected using a biotin-conjugated secondary antibody (Vector, RTU vectastain universal quick kit, PK-7800). After peroxidase-conjugated streptavidine (Vector, RTU vectastain universal quick kit, PK-7800) and peroxidase substrate addition (Dako, Substrat hyper-sensible AEC+), nuclei were counter-stained using a solution of hematoxylin. Sections were observed using a NIKON E400 microscope. The images were captured using a NIKON DS-Ril and processed with NIS-Elements 3.10 software.

Take “OSM: human recombinant oncostatin M, cytokine of the IL-6 family”: in the test with NHEK [1], the “Keratinocyte migration to the cell-free area” value is “important migration of NHEK, similar to that observed in the presence of EGF”. In the test with NHEK [2], the “Expression of CXCL1, CXCL5, CXCL8 and PDGF-A genes” value was “increased the expression”; the “Expression of calcium binding proteins S100A7, S100A8, S100A9, S100 neutrophil protein” value is recorded as “marked increase”; the “Expression of genes associated with keratinocyte differentiation (CK1, CK10, fillagrin, loricrin)” value is on record as “down regulates”. For the same substance, in the test on NHEK [2] (array of 586 cDNAs), the “Number of genes with decreased expression” value is 38 genes and the “Number of genes with increased expression” value came out at 36 genes. The “S100A7, S100A8, S100A9 protein expression” value in the test with NHEK [3] is on record as “increased expression of studied proteins”. Also, the “Number of the 21 chemokine and antimicrobial peptide genes upregulated” value in the test on NHEK [4] is reported as 13. In the test with RHE (RHE), the “CK10, LOR and FLG expression (immunohistology)” value was “decreases expression of CK10, LOR and FLG”; the “IVL expression (immunohistology)” value is given as “strongly”; the “S100A7 expression (immunohistology)” value is given as “strongly induced”. Besides, the RHE histology entry in the test on RHE is recorded as “significant keratinocyte hyperplasia”.
